From PubChem BioAssay AID179 (DTP/NCI, 2004)
Activity calls are given as the source filed them.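 How the source made its calls: active means compounds giving half or more protection of infected cells from virus-caused growth loss, again on retest; inactive means the rest.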 Where a SMILES comes first, the peptide text is derived from it. [ ]: non-standard residue; d: D form. The star is where a group is joined. ξ: configuration not given here. X19 = O=C(OCc1ccccc1)[C@H]1CCC[C@H]1N*; ξW = NC(Cc1c[nH]c2ccccc12)C(=O)O; pGlu = O=C1CC[CH](C(=O)O)N1; ξF = NC(Cc1ccccc1)C(=O)O; Cbz = O=C(OCc1ccccc1)*; Thz = O=C(O)[CH]1CSCN1; Boc = CC(C)(C)OC(=O)*; ξK = NCCCCC(N)C(=O)O; ξT = CC(O)C(N)C(=O)O; tBu = CC(C)(C)*; NHNH2 = NN*

Test system: CEM cells HIV-1 protection, formazan growth assay
Experiment: NCI AIDS Antiviral Assay
Settings: for IC50: measured here: growth of uninfected CEM cells
How it was run: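 Screen of anti-HIV-1 activity in human CEM cells using a formazan-based growth measurement at five drug concentrations. Hits with 50% or greater protection were repeated, and confirmation required reproducible complete protection.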

Compound | EC50 | IC50 | outcome
C/C1=C\[C@H](C)C[C@H](C)OC(=O)C[C@H](c2ccc(O)cc2)NC(=O)[C@@H](Cc2c(Br)[nH]c3ccccc23)N(C)C(=O)[C@H](C)NC(=O)[C@@H](C)C1 | > 2 µM | 0.0302 µM | 
C/C(N)=C/C(=O)c1[nH]c(C(=O)O)cc1C1CCN(Cc2ccccc2)C1=O (configuration not stated) | > 200 µM | 31.6 µM | 
Cc1ccc2c(c1)-c1c3c(nn1-c1ccccc1)-c1ccccc1SC3O2 (configuration not stated) | > 3.89 µM | > 3.89 µM | 
CS/C(=N\N=C(/C)c1ccccn1)N1CCN(c2ccccn2)CC1 | > 123 µM | 17.4 µM | 
CC(=O)NC1C(OC2C(CO)OC(OCC3OC(n4ccc(N)nc4=O)C(O)C3O)C(NC(C)=O)C2O)OC(CO)C(O)C1O (configuration not stated) | > 200 µM | 11.2 µM | 
O=P(Nc1ccc(Cl)cc1)(Oc1ccccc1)N(CCCl)CCCl (configuration not stated) | > 17.8 µM | 8.71 µM | 
N#CC(C#N)[C@@H]1CCC=C(Sc2ccccc2)[C@H]1Sc1ccccc1 | > 20 µM | 3.63 µM | 
OC1(c2cccc3ccccc23)CCCc2cc3c(ccc4ccccc43)cc21 (configuration not stated) | > 200 µM | 155 µM | 
Cn1c(=O)c2ncc(N)nc2n(C)c1=O | > 100 µM | > 100 µM | 
NNC(=O)C(CCC(=O)O)NC(=O)C(CCC(=O)O)NC(=O)C(CCC(=O)O)NC(=O)CNC(=O)CNC(=O)OCc1ccccc1 (configuration not stated) (Cbz-GGEEE-NHNH2; configuration not given here) | > 200 µM | > 200 µM | 
CC1CCC2C1(C)CCC1C2(C)CCC2(C)C3CC(C)(C)CCC3(C)CCC12C (configuration not stated) | 93.3 µM | > 100 µM | 
CC(C)(C)OC(=O)N[C@H]1CCN(C2CCCCC2)C1=O | > 200 µM | > 200 µM | 
NC(N)=NS(=O)(=O)c1ccc(NCCc2c3ccccc3nc3ccccc23)cc1 | > 200 µM | 66.1 µM | 
CCCCCCC(=O)c1c(O)c2ccccc2oc1=O | > 200 µM | 29.5 µM | 
OCC1OC2NC(=S)OC2C1O (configuration not stated) | > 200 µM | > 200 µM | 
O=Cc1ccc2c(c1I)OCO2 | > 67.6 µM | 38.9 µM | 
Cc1c(Cl)c(=O)oc2c3c(ccc12)OC(C)(C)[C@H](OC(=O)C12CCC(C)(C(=O)O1)C2(C)C)[C@@H]3OC(=O)C12CCC(C)(C(=O)O1)C2(C)C (some centres not stated) | 0.282 µM | 5.62 µM | 
CN(C)C(=S)/N=c1\ss/c(=N\S(=O)(=O)c2ccccc2)n1C |  |  | inactive
CCN(CC)c1ccc(N=O)c(O)c1 | > 200 µM | 8.71 µM | 
CCOC(=O)C1S(=O)(=O)OCCOS1(=O)=O | > 5750 µM | 3470 µM | 
O=C(C(c1ccccc1)c1ccccc1)N1CCN(c2ccccn2)CC1 | > 89.1 µM | 29.5 µM | 
CCSC1(SCC)CCN(C=NC(C)(C)C)C1 | > 912 µM | > 912 µM | 

Compound | EC50 | IC50 | outcome
Cn1c2ccccc2c2ccc3c(c21)C(=O)C(c1ccccc1)=CC3=O | > 40.7 µM | 29.5 µM | 
CN(C)CCC(CCN(C)C)=NO | > 955 µM | > 955 µM | 
CC(CCC(N)=O)(CCC(N)=O)[N+](=O)[O-] | > 200 µM | > 200 µM | 
Cc1cc2c(c(C(N)=O)c1C)-c1ccccc1C2=O | > 102 µM | > 102 µM | 
O=[N+]([O-])c1ccc(-c2nc3c(o2)CCC3)cc1 | > 200 µM | 195 µM | 
N#C/C(=C\c1ccccc1)c1cccc(Br)c1 | > 200 µM | > 200 µM | 
COS(=O)c1cc(Cl)cc(Cl)c1OC(=O)CSSCC(=O)Oc1c(Cl)cc(Cl)cc1S(=O)OC (configuration not stated) |  |  | inactive
NS(=O)(=O)c1nnc(NC(=O)C23CC4CC(CC(C4)C2)C3)s1 | > 200 µM | 81.3 µM | 
CC(C)(C)C1=C(Br)C(F)(C(C)(C)C)OP1(=O)c1ccccc1 (configuration not stated) | > 200 µM | 25.7 µM | 
CC[C@]1(Cc2ccc(OC)c(OC)c2)[C@@H]2C[C@@H](C(=O)OC)ON2O[C@H](OC2CCCC2(c2ccccc2)c2ccccc2)[C@@H]1OC(C)=O (some centres not stated) | > 200 µM | 21.4 µM | 
O=C(O)CNS(=O)(=O)c1ccc(NC(=O)c2ccc(Cl)cc2)cc1 |  |  | inactive
COC(=O)C(=O)C(C(=O)C=C(C)C)C(=O)C(=O)Nc1ccc(C)cc1C (configuration not stated) | > 100 µM | > 100 µM | 
O=C1OCCC1C(O)C1c2ccccc2-c2ccccc21 (configuration not stated) | > 339 µM | > 339 µM | 
O=c1oc(-c2ccccc2)c(-c2ccccc2)n1-c1ccc(Br)cc1 | > 100 µM | > 100 µM | 
CN(C)Cc1cc(N=Nc2c(Cl)cccc2Cl)ccc1O | > 200 µM | 83.2 µM | 
N#CN=C(N)NC#N | > 1700 µM | > 1700 µM | 
CCCCCCN1CCN(Cc2ccc(N(CC)CC)cc2)C(=O)C1=O | > 200 µM | 0.977 µM | 
CC1(Nc2ccccc2)OC(=O)c2ccccc21 (configuration not stated) | > 200 µM | > 200 µM | 
O=S(=O)(SCc1ccccc1)C(c1ccccc1)c1ccccc1 | > 105 µM | 6.31 µM | 
CC(OC(C)(C)C)C(NC(=O)C(CCCCNC(=O)OC(C)(C)C)NC(=O)C(Cc1c[nH]c2ccccc12)NC(=O)C(Cc1ccccc1)NC(=O)OCc1ccccc1)C(=O)NC(Cc1ccccc1)C(=O)N[C@@H]1CCC[C@@H]1C(=O)OCc1ccccc1 (some centres not stated) (Cbz-[ξF][ξW][ξK](Boc)[ξT](tBu)[ξF]-X19) |  |  | inactive
Cc1ccc(C=C(C(=O)O)C(=O)O)o1 | 145 µM | > 200 µM | 
Cc1ccc([S+](c2ccccc2)c2cc(C)ccc2C)cc1 (configuration not stated) | > 646 µM | 1.17 µM | 

Compound | EC50 | IC50 | outcome
C[C@H]1CC(=O)C[C@@H]2CC[C@@H]3[C@H](CC[C@]4(C)C(OC(=O)c5cccc6c(=O)c7ccccc7[nH]c56)CC[C@@H]34)[C@]21C (some centres not stated) | > 200 µM | 22.4 µM | 
O=C1/C(=C/c2ccc(F)cc2)Cc2ccccc21 | > 30.2 µM | > 30.2 µM | 
O=C1CCC(C(=O)N2CSCC2C(=O)O)N1 (configuration not stated) ([pGlu]-[Thz]-OH; configuration not given here) | > 200 µM | > 200 µM | 
O=C(C[n+]1ccccc1)N/N=C(/CCC(=O)N(Cc1ccccc1)Cc1ccccc1)CC(=O)c1ccccc1 | > 437 µM | > 437 µM | 
CN(C)c1ccc(/C=c2\sc3nnc(-c4cccnc4)n3c2=O)cc1 | > 20.9 µM | > 20.9 µM | 
COc1cc2c(cc1OC)C1Cc3cc(OC)c(OC)cc3C(C2)O1 | > 200 µM | 105 µM | 
CC(=O)[CH-]C(=O)c1ccccc1.CC(=O)[CH-]C(=O)c1ccccc1.CC(=O)[CH-]C(=O)c1ccccc1.[Tl+3] | > 138 µM | 49 µM | 
C[C@]12CCc3nonc3C1CC[C@@H]1C2CC[C@@]2(C)C1CC[C@@H]2O (some centres not stated) | > 214 µM | 174 µM | 
CN(OC(=O)CC(=O)c1ccccc1)C(=O)Cc1ccccc1 | > 251 µM | 191 µM | 
CC(c1ccccc1)N1CC(=O)N([C@H](C)c2ccccc2)C1=O (some centres not stated) | > 200 µM | > 200 µM | 
N#CC(c1ccccn1)c1nc2ccccc2[nH]1 (configuration not stated) | > 8.51 µM | > 8.51 µM | 
CC(C)=CCC[C@@H](C)C1=C(O)C(N)=C(C)C(=O)C1=O | > 200 µM | 12 µM | 
NC(=S)NN=C(C1CC1)C1CC1 | > 200 µM | > 200 µM | 
CCC1(O)C(=O)Nc2ccccc2C1=O (configuration not stated) | > 200 µM | > 200 µM | 
CC(=O)NS(=O)(=O)c1ccc(N=Cc2cc(Cl)cc(Cl)c2O)cc1 | > 200 µM | 19.5 µM | 
O=Cc1c(-c2ccccc2)nc2sc(-c3ccc4c(c3)OCO4)nn12 |  |  | inactive
O=S(/C=C/C=C/S(=O)(=O)c1ccccc1)c1ccccc1 (configuration not stated) | > 200 µM | 0.977 µM | 
CC1(C)CCCC2(C)C3C(O)CC2(C)C(O)C31 (configuration not stated) | > 282 µM | > 282 µM | 
COC(=O)Cc1ccc2c(c1)Sc1ccc(CC(=O)OC)cc1N2C | > 200 µM | 4.47 µM | 
O=C(NCCCl)N1CCC(CN=c2cc3n(-c4ccc(Cl)cc4)c4ccccc4nc-3cc2Nc2ccc(Cl)cc2)CC1 | > 100 µM | 17 µM | 
C[N+]1(C2=C([O-])C(F)(F)C2=O)CCOCC1 | > 200 µM | > 200 µM | 
O=C(OCC1CO1)c1cccs1 (configuration not stated) |  |  | inactive

Compound | EC50 | IC50 | outcome
C[C@H]1[C@H](NC(=O)/C(=N\OC(C)(C)C(=O)O)c2csc(N)n2)C(=O)N1S(=O)(=O)O | > 575 µM | > 575 µM | 
c1ccc2c(c1)CCCN1CCc3ccccc3C21 (configuration not stated) | > 200 µM | 51.3 µM | 
N#CCCN(CCCN(C(=O)N(c1ccccc1)c1ccccc1)c1ccccc1)C(=O)Nc1ccccc1 | > 200 µM | 10.5 µM | 
CNC(=O)c1n[nH]n(C2CCCCC2)c1=S |  |  | inactive
O=C(CCCCC(=O)OCC1COCO1)OCC1COCO1 (configuration not stated) | > 200 µM | > 200 µM | 
CN(C)c1nc2sc3c(c2c(=O)o1)CCCC3 | > 200 µM | 51.3 µM | 
CC1=CC(=O)C(=C(C)C)CC1 | > 200 µM | 129 µM | 
CN1CCN(CCSc2nnc(-c3cc4ccccc4s3)c3ccccc23)CC1 | > 162 µM | 12.9 µM | 
c1ccc(COc2nc3ccc(C45CC6CC(CC(C6)C4)C5)cc3[nH]2)cc1 | > 200 µM | 7.41 µM | 
CC(C)(Cc1ccccc1)NC1=NCCO1 | > 200 µM | > 200 µM | 
CC1CCC2CC1NC(=O)CCOCCC(=O)NC2(C)C (configuration not stated) | > 45.7 µM | > 45.7 µM | 
CCCSS/C(CCO)=C(\C)N(C=O)Cc1cnc(C)nc1N | > 200 µM | 10.5 µM | 
CC(C)(C)c1ccc(-c2nnc(-c3cc(C#N)cc(-c4nnc(-c5ccc(C(C)(C)C)cc5)o4)c3)o2)cc1 | > 100 µM | > 100 µM | 
CC(=O)O[C@H]1[C@@H]2[C@@H]3[C@@H](C[C@H]1C)[C@@H](C)CO[C@@]1(C)CC/C=C(/C)C[C@@H]2O[C@@H]31 | > 100 µM | > 100 µM | 
CCOC(=O)C1=C(C)/C(=C/c2[n-]c(C)c(C(=O)OCC)c2C)N=C1C.CCOC(=O)C1=C(C)/C(=C/c2[n-]c(C)c(C(=O)OCC)c2C)N=C1C.[Cu+2] | > 200 µM | > 200 µM | 
C/C(=N\N=C(N)N)c1ccccc1 |  |  | inactive
O=C(C(=O)c1ccc(Cc2ccc(C(=O)C(=O)c3ccccc3)cc2)cc1)c1ccccc1 | > 575 µM | > 575 µM | 
CCC1c2c(cc(=O)[nH]c2O)C(=O)N1Cc1ccccc1 (configuration not stated) | > 398 µM | > 398 µM | 
COc1ccc(OC)c2c1C=C[C@H](C1(C)SCCS1)C2C(C)=O (some centres not stated) | > 200 µM | 8.91 µM | 
